Assay results from US12297179B2, “Crystalline and salt forms of an organic compound and pharmaceutical compositions thereof” (Servier Pharmaceuticals LLC, priority 2018, dated 2025).
Where a name gives a salt, the structure may show the parent alone. Marks after values point to notes of the source that are not given here.

What was measured:
[1] = Kinetic solubility in bio-relevant media (SGF/FaSSGF, FaSSIF, FeSSIF) and H2O at 37° C., with pH of supernatant; format: physicochemical; settings: for solubility at 15 min / solubility at 30 min / solubility at 1 h / solubility at 2 h / solubility at 24 h: 37 °C, thermodynamic from solid; for Solubility: 37° C.
Procedure: (§1) Weigh 100 mg of sodium chloride into a 50-mL volumetric flask. Add appropriate volume of purified water and sonicate until all solids are completely dissolved. Add sufficient purified water closely to the target volume and adjust to pH 1.6. Weigh 3 mg of FaSSIF/FeSSIF/FaSSGF powder into the volumetric flask and sonicate until the powder is completely dissolved. Dilute to target volume with purified water and mix well.
as §1, with “0.170 g of monobasic sodium phosphate, 0.021 g of sodium hydroxide and 0.31 g” for “100 mg”, “6.5.” for “1.6.”, “110” for “3”
as §1, with “0.41 mL of glacial acetic acid, 0.202 g of sodium hydroxide and 0.594 g” for “100 mg”, “5.0.” for “1.6.”, “560” for “3”
An Agilent 1260 HPLC with DAD detector was utilized and detailed chromatographic conditions for solubility analysis are listed in Table 5.
Kinetic solubility of Tris salt Form A and free acid Form D were measured in three bio-relevant media (SGF, FaSSIF and FeSSIF) at 37° C. In details, ˜30 mg solids were suspended into 4.0 mL of each medium initially and equilibrated via shaking (500 rpm) at 37° C. Approximately 0.8 mL suspension was extracted at each time point of 15/30/60/120 mins and 24 hrs. The supernatant and precipitate were separated by centrifugation (10000 rpm, ˜3 mins) followed by concentration (HPLC) and pH measurement for supernatant and the corresponding solid forms were characterized by XRPD.
Due to the thermodynamic stability of Tris salt Form C, further evaluation was conducted, including kinetic solubility in three bio-relevant media (FaSSGF/FaSSF/FeSSIF) and H2O at 37° C.

[2] = Hygroscopicity by dynamic vapor sorption (DVS); format: physicochemical
Procedure: DVS was measured via a SMS (Surface Measurement Systems) DVS Intrinsic. The relative humidity at 25° C. was calibrated against deliquescence point of LiCl, Mg(NO3)2 and KCl.

[3] = Thermodynamic stability: slurry competition between Tris salt Forms A and C; format: physicochemical; settings: DMSO/EtOH (1:8, v/v) and EtOH, 5° C./RT/50° C./75° C., 7 days
Procedure: The thermodynamic stability relationship between Tris salt Forms A and C was investigated via slurry competition experiments in 2 process related solvent systems, DMSO/EtOH (1:8, v/v) and EtOH at 4 temperature conditions (5° C./RT/50° C./75° C.). Two stages of slurry competition experiments were conducted, of which the first stage included temperature as a variable and the second stage used newly opened reagents to minimize the effect of absorbed moisture. Typical experimental procedures are described below.
About 5-10 mg of crystalline Tris salt Form C was first dissolved in ˜1.0 mL of corresponding solvent to form nearly saturated solution under corresponding temperature (equilibrating method: stirring magnetically, ˜1000 rpm, ˜2 hrs). Then ˜15 mg of each form (crystalline Tris salt Forms A and C) was physically mixed, followed by addition of the nearly saturated solution to form a suspension. The suspensions were then stirred (˜1000 rpm) under corresponding temperature for 7 days (a small amount of solids were sampled at 2 day point in the second stage experiments). The obtained solids were isolated via centrifugation (10000 rpm, 2 mins) and tested by XRPD to confirm the form.

[4] = Sprague Dawley, rat, in vivo, po, 100 mg/kg
Procedure: The objective of the pharmacokinetic (PK) studies was to determine the pharmacokinetics of the different forms of Compound 1 in intact Sprague Dawley rats after oral (PO) administration. […] Food and water were available to all animals ad libitum and Compound 1 or Tris salt Form C of Compound was dosed orally at 100 mg/kg (100 mL/kg). Approximately 110 μL of whole blood was collected via tail vein bleeding predose and at 0.083, 0.25, 0.5, 1, 2, 4, 8, 12 and 24 hours postdose into tubes containing the anticoagulant K2EDTA, processed to obtain plasma, and stored at approximately −70° C. until analysis. Concentrations of the active pharmaceutical ingredient in plasma samples were quantified using a nonvalidated liquid chromatography with tandem mass spectrometry (LC-MS/MS) method. Pharmacokinetic analysis of the individual plasma concentration data was performed using WinNonlin© (Version 6.4; Pharsight Corporation, Mountain View, CA, USA). Pharmacokinetic parameters were estimated using a noncompartmental extravascular models method. Area under the concentration-time curve (AUC) was calculated using the linear trapezoidal rule. […] Concentrations that were <80% of the LLOQ were designated as BLQ.

Cc1ccccc1-c1ccc(-c2cc(C(=O)O)c3c(c2)nnn3C)cc1 [Tris salt Form C]
solubility at 15 min ([1]; FaSSIF, pH 6.5, fassif, Table 12, FaSSIF, 15 min): 390 µg/mL | solubility at 30 min ([1]; FaSSIF, pH 6.5, fassif, Table 12, FaSSIF, 30 min): 320 µg/mL | solubility at 1 h ([1]; FaSSIF, pH 6.5, fassif, Table 12, FaSSIF, 1 h): 250 µg/mL | solubility at 2 h ([1]; FaSSIF, pH 6.5, fassif, Table 12, FaSSIF, 2 h): 220 µg/mL | solubility at 24 h ([1]; FaSSIF, pH 6.5, fassif, Table 12, FaSSIF, 24 h): 170 µg/mL | solubility at 15 min ([1]; FeSSIF, pH 5, fessif, Table 12, FeSSIF, 15 min): 330 µg/mL | solubility at 30 min ([1]; FeSSIF, pH 5, fessif, Table 12, FeSSIF, 30 min): 270 µg/mL | solubility at 1 h ([1]; FeSSIF, pH 5, fessif, Table 12, FeSSIF, 1 h): 50 µg/mL | solubility at 2 h ([1]; FeSSIF, pH 5, fessif, Table 12, FeSSIF, 2 h): 40 µg/mL | solubility at 24 h ([1]; FeSSIF, pH 5, fessif, Table 12, FeSSIF, 24 h): 40 µg/mL | Solubility ([1]; Table 12, FaSSGF, 15 min): <LOD | Solubility ([1]; Table 12, FaSSGF, 30 min): <LOD | Solubility ([1]; Table 12, FaSSGF, 1 h): <LOD | Solubility ([1]; Table 12, FaSSGF, 2 h): <LOD | Solubility ([1]; Table 12, FaSSGF, 24 h): <LOD | pH ([1]; Table 12, FaSSGF, 15 min): 3.0 | pH ([1]; Table 12, FaSSGF, 30 min): 3.1 | pH ([1]; Table 12, FaSSGF, 1 h): 4.0 | pH ([1]; Table 12, FaSSGF, 2 h): 4.1 | pH ([1]; Table 12, FaSSGF, 24 h): 3.1 | pH ([1]; Table 12, FaSSIF, 15 min): 7.7 | pH ([1]; Table 12, FaSSIF, 30 min): 7.8 | pH ([1]; Table 12, FaSSIF, 1 h): 7.8 | pH ([1]; Table 12, FaSSIF, 2 h): 7.8 | pH ([1]; Table 12, FaSSIF, 24 h): 7.9 | pH ([1]; Table 12, FeSSIF, 15 min): 5.5* | pH ([1]; Table 12, FeSSIF, 30 min): 5.6* | pH ([1]; Table 12, FeSSIF, 1 h): 5.6 | pH ([1]; Table 12, FeSSIF, 2 h): 5.6 | pH ([1]; Table 12, FeSSIF, 24 h): 5.6 | pH ([1]; Table 12, H2O, 15 min): 8.9 | pH ([1]; Table 12, H2O, 30 min): 9.0 | pH ([1]; Table 12, H2O, 1 h): 9.0 | pH ([1]; Table 12, H2O, 2 h): 9.0 | pH ([1]; Table 12, H2O, 24 h): 9.2 | solubility at 15 min ([1]; water, Table 12, H2O, 15 min): 810 µg/mL | solubility at 30 min ([1]; water, Table 12, H2O, 30 min): 820 µg/mL | solubility at 1 h ([1]; water, Table 12, H2O, 1 h): 720 µg/mL | solubility at 2 h ([1]; water, Table 12, H2O, 2 h): 750 µg/mL | solubility at 24 h ([1]; water, Table 12, H2O, 24 h): 400 µg/mL | solid form after the DVS test (XRPD) ([2]; 25° C.): remained as Tris salt Form C | moisture uptake ([2]; DVS, humidity varied from 0% RH to 80% RH at 25° C.): ~0.04 wt % | form after slurry competition (XRPD), thermodynamic stability [3]: thermodynamically more stable

Cc1ccccc1-c1ccc(-c2cc(C(=O)O)c3c(c2)nnn3C)cc1 [Tris salt, 1-methyl-5-(2′-methyl-[1,1′-biphenyl]-yl)-1H-benzo[d][1,2,3]triazole-7-carboxylate Tris salt]
Cmax, fold higher than best free acid batch Lot B [4]: ~1.5 fold | Tmax, fold lower than best free acid batch Lot B [4]: ~2 fold
